Data from ChEMBL document CHEMBL3102777, “Binding ability of a thymine-functionalized oligolysine towards nucleic acids” (Bioorg Med Chem, 2014).
The source made the active and inactive calls. No cut-off for these calls is given here. Residues, ends and D or L forms follow the SMILES beside them. *: point of attachment. Acetyl(thymin-1-yl) = Cc1cn(CC(=O)*)c(=O)[nH]c1=O

What was measured:
[1] = Binding affinity to dA12 DNA (unknown origin) at 2.5:1 compound to DNA ratio by circular dichroism analysis
[2] = Binding affinity to poly rA RNA (unknown origin) at 2:1 compound to RNA ratio assessed as melting temperature by circular dichroism analysis
[3] = Binding affinity to dA12 DNA (unknown origin) at 24 nM by circular dichroism analysis
[4] = Binding affinity to […] RNA (unknown origin) at 2:1 compound to RNA ratio by circular dichroism analysis
[5] = Binding affinity to dT12 DNA (unknown origin) at 24 nM by circular dichroism analysis
[6] = Binding affinity to […] RNA (unknown origin) at 1.5:1 compound to RNA ratio by circular dichroism analysis
[7] = Binding affinity to dA12 DNA (unknown origin) at 10 uM assessed as melting temperature by UV analysis
[8] = Binding affinity to poly rA RNA (unknown origin) by surface plasmon resonance assay
[9] = Binding affinity to poly rA RNA (unknown origin) at 24 nM by circular dichroism analysis
[10] = Binding affinity to […] RNA (unknown origin) by surface plasmon resonance assay
[11] = Binding affinity to […] RNA (unknown origin) at 12.8 uM assessed as melting temperature by UV analysis
[12] = Binding affinity to poly rA RNA (unknown origin) at 2:1 compound to RNA ratio by circular dichroism analysis
[13] = Half life in 94% human serum at 14 uM; type: ADME

Activity [1]: Active
Tm [2]: 35 °C
Activity [3]: Active
Activity [4]: Active
Activity [5]: Active
Activity [6]: Active
Tm [7]: 25 °C
Activity [8]: Active
Activity [9]: Active
Activity [10]: Active
Tm [11]: 27 °C
Activity [12]: Active
half-life at 14 µM [13]: 45 min
SMILES: Cc1cn(CC(=O)NCCCC[C@H](NC(=O)[C@H](CCCCN)NC(=O)[C@H](CCCCNC(=O)Cn2cc(C)c(=O)[nH]c2=O)NC(=O)[C@H](CCCCN)NC(=O)[C@H](CCCCNC(=O)Cn2cc(C)c(=O)[nH]c2=O)NC(=O)[C@H](CCCCN)NC(=O)[C@H](CCCCNC(=O)Cn2cc(C)c(=O)[nH]c2=O)NC(=O)[C@H](CCCCN)NC(=O)[C@H](CCCCNC(=O)Cn2cc(C)c(=O)[nH]c2=O)NC(=O)[C@H](CCCCN)NC(=O)[C@@H](N)CCCCNC(=O)Cn2cc(C)c(=O)[nH]c2=O)C(=O)N[C@@H](CCCCN)C(N)=O)c(=O)[nH]c1=O (H-K(Acetyl(thymin-1-yl))KK(Acetyl(thymin-1-yl))KK(Acetyl(thymin-1-yl))KK(Acetyl(thymin-1-yl))KK(Acetyl(thymin-1-yl))KK(Acetyl(thymin-1-yl))K-NH2)
